Laboratory results from patent US4847256A, “4,5-dihydro and 4,5,6,7-tetrahydropyrazolo(1,5-A)-pyrimidines” (American Cyanamid Company, priority 1986, dated 1989).

How the values were obtained:
[1] = system: spontaneously hypertensive rats of the Okamoto strain; assay: Reduction of mean arterial blood pressure in spontaneously hypertensive rats; format: in vivo, rat (Okamoto strain; conditions: 100 mg/kg or less by gavage, two doses 24 h apart; MABP at 28 hours; number of rats in parentheses in cell; untreated average 160±1.5 mm Hg
Procedure: Certain of the novel compounds of the present invention are active hypotensive agents at nontoxic doses when administered to mammals. These compounds were tested for hypotensive activity by the method of P. S. Chan and D. W. Poorvin, Clinical and Experimental Hypertension, 1 (6), 817-830 (1979). Male, 16 week old, spontaneously hypertensive rats of the Okamoto strain having an average mean arterial blood pressure of 160±1.5 mm of mercury are used in the test. One to three rats are used per test compound. A rat is dosed by gavage with a test compound, suspended in 2% pre-boiled starch at a concentration of 50 mg/ml, at a dose of 100 mg/kg of body weight or less, with 0.9% sodium chloride loading at a dose of 25 ml/kg of body weight. A second identical dose of the test compound, without sodium chloride loading is given 24 hours later. At 28 hours after the initial dose the mean arterial blood pressure is measured by the method of Chan and Poorvin vide supra. The procedure is repeated in a second and third rat when necessary.

[2] = system: brain-specific receptors (benzodiazepine binding); assay: Inhibition of the binding of 3H-benzodiazepine to brain-specific receptors of rats; set-up: species or system rat (Wistar); conditions: 3H-diazepam (1.5 nM) or 3H-flunitrazepam (1.0 nM), rat cortex P2 fraction, pH 7.4, 30 minutes in ice; 12% or more = active; test concentration not given
Excerpt: Still another test utilized for the determination of anxiolytic activity is the measurement of the ability of a test compound to inhibit the binding of tritiated benzodiazepines to brain-specific receptors of mammals. A modification of the method described by R. F. Squires, et al., Nature, 266, No. 21:732 (April, 1977) and H. Mohler, et al., Science, 198:849 (1977) was employed.
Male albino rats (Wistar strain, weighing 150-200 g each) were used. The test compounds were solubilized in dimethylformamide, acetic acid, ethanol or hydrochloric acid.
Whole cortex of rats was homogenized gently in 20 volumes of ice-cold 0.32 M sucrose, centrifuged twice at 1000 g for 10 minutes and then recentrifuged at 30,000 g for 20 minutes to produce a crude P2 -synaptosomal fraction. The P2 -fraction was either: (1) resuspended in twice the original volume in hypotonic 50 mM Tris.HCl (pH 7.4), or (2) resuspended in one-half the original volume in hypotonic 10 mM Tris.HCl (pH 7.4) and frozen (-20° C.) until time of use. Frozen P2 preparations were thawed and resuspended in four times the original homogenizing volume at time of assay.
The binding assay consisted of 300 μl of the P2 -fraction suspension (0.2-0.4 mg protein), 100 μl of test drug and 100 μl of ^3 H-diazepam (1.5 nM, final concentration) or ^3 H-flunitrazepam (1.0 nM, final concentration) which was added to 1.5 ml of […] Tris.HCl (pH 7.4). Nonspecific binding controls and total binding controls received 100 μl of diazepam (3 μM final concentration) and 100 μl of deionized water, respectively, in place of the test compound. Incubation for 30 minutes proceeded in ice and was terminated by filtration, under vacuum, through glass fiber filters. The filters were washed twice with 5 ml of ice-cold 50 mM Tris.HCl (pH 7.4) and placed in scintillation vials. After drying at 50°-60° C. for 30 minutes, 10 ml of diluent was added and the radioactivity determined in a scintillation counter.
Inhibition of binding was calculated by the difference between total binding and binding in the presence of test compound, divided by the total binding, ×100. Physiological activity can be shown by a test compound that inhibits ^3 H-benzodiazepine binding by 12% or more.

[3] = system: Wistar strain male rats (conflict procedure); assay: Non-conditioned passive avoidance (conflict) procedure in rats; format: in vivo, rat (Wistar); conditions: 25 mg/kg, oral, 60 minutes before test
Procedure: Another test used to assess antianxiety effects is a non-conditioned passive avoidance procedure described by J. R. Vogel, B. Beer and D. E. Clody, "A Simple and Reliable Conflict Procedure for Testing Antianxiety Agents", Psychopharmacologia, 21:1-7 (1971). A conflict situation is induced in rats by a modification of this method.
Groups of 8 naive, Wistar strain male rats weighing 200-240 g each were deprived of water for 48 hours. The test compounds were administered in single or graded, oral doses, suspended in 2% starch with 5% polyethylene glycol in distilled water and one drop of polysorbate 80. Control animals received the vehicle alone. At 60 minutes each rat was placed in an individual clear plastic chamber. Tap water was available ad libitum from a nipple located in a black box off the main chamber. A 0.7 milliampere AC shocking current was established between the stainless steel grid floor and the tap. After 20 licks of non-shocked drinking, a 2 second shocking current was administered to the rat. This ratio of 20 licks of non-shocked drinking followed by a 2 second shock was continued for a total of 3 minutes. The number of shocks taken by each rat during the 3 minute interval was recorded and compared to a control group. […]

[4] = system: rats (stress induced immobility); assay: Stress Induced Immobility Test; format: in vivo, rat; conditions: 25 mg/kg intraperitoneally, 15 minutes at 44.5° C.; control 200 seconds
Procedure: The compounds of this invention are active as antidepressant agents in warm-blooded animals as evidenced by their results when tested in the Stress Induced Immobility Test. In this test, rats were confined on a warm (44.5° C.), but aversive, surface for 15 minutes. After 5-6 minutes, control rats began to show episodes of behavior where they remained flat and immobile for periods of time. The total duration of this behavior was timed. The average duration of immobility in the control rats was 200 seconds. The test compounds were administered intraperitoneally at 25 mg/kg of body weight. A compound was considered active if the maximum duration time was <100 seconds (less than 50% of the control value) in more than 50% of the rats.

[5] = system: clonic seizures caused by pentylenetetrazole in rats; assay: Protection against clonic seizures caused by pentylenetetrazole in rats; format: in vivo, rat; conditions: 25 mg/kg, oral or intraperitoneal; pentylenetetrazole 23 mg/kg i.v. at 30 or 60 minutes; active if >=50% protected
Procedure: The antianxiety properties of the novel compounds of the present invention have been established in a test which indicates anxiolytic activity by the measure of protection from convulsions resulting from the administration of pentylenetetrazole. Single or graded dose levels of the test compounds were administered orally or intraperitoneally in a 2% starch vehicle containing 0.5% v/v polyethylene glycol and one drop of polysorbate 80, or distilled water and one drop of polysorbate 80 to groups of at least 4 rats. At 30 or 60 minutes, the rats were treated intravenously with pentylenetetrazole at a dose of 23 mg/kg of body weight. This dose is estimated to cause clonic seizures in 99% of unprotected rats. The test compounds are considered active if they protect 50% or more of the rats from clonic seizures. It has been reported [R. T. Hill and D. H. Tedeschi, "Animal Testing and Screening Procedures in Evaluating Psychotropic Drugs" in "An Introduction to Psychopharmacology", pp. 237-288 (Eds. R. R. Rech and K. E. Moore, Raven Press, New York, 1971) that there is a high degree of correlation between antagonism of pentylenetetrazole seizures in rats and antianxiety effects in higher warm-blooded animals.

Compound: CC(C)(C)C(=O)c1cnn2c1NCCC2 [2,2-Dimethyl-1-(4,5,6,7-tetrahydropyrazolo[1,5-a]pyrimidin-3-yl)-1-propanone]
- MABP/mm Hg (no. of rats) [1]: 114 mm Hg
- % Inhibition of 3H-benzodiazepine binding [2]: 28%

Compound: FC(F)(F)c1cccc(C2=CCNc3c(Cl)cnn32)c1 [3-Chloro-4,5-dihydro-7-[3-(trifluoromethyl)phenyl]pyrazolo[1,5-a]pyrimidine]
- % Inhibition of 3H-benzodiazepine binding [2]: 63%

Compound: N#Cc1cnn2c1NCCC2c1cccc(C(F)(F)F)c1 (stereo not drawn) [4,5,6,7-Tetrahydro-7-[3-(trifluoromethyl)phenyl]pyrazolo[1,5-a]pyrimidine-3-carbonitrile]
- MABP/mm Hg (no. of rats) [1]: 128 mm Hg

Compound: NC(=O)c1cnn2c1NCCC2 [4,5,6,7-Tetrahydropyrazolo[1,5-a]pyrimidine-3-carboxamide]
- MABP/mm Hg (no. of rats) [1]: 137 mm Hg

Compound: CN1CC=C(c2cccc(C(F)(F)F)c2)n2ncc(C#N)c21 [4,5-Dihydro-4-methyl-7-[3-(trifluoromethyl)phenyl]pyrazolo[1,5-a]pyrimidine-3-carbonitrile]
- Result (no. of shocks per 3 min.) [3]: 19.0 no. of shocks per 3 min.
- % Inhibition of 3H-benzodiazepine binding [2]: 12%

Compound: CC1=C(c2cccc(C(F)(F)F)c2)n2ncc(C#N)c2NC1 [4,5-Dihydro-6-methyl-7-[3-(trifluoromethyl)phenyl]pyrazolo[1,5-a]pyrimidine-3-carbonitrile]
- Mean Duration (Seconds) of immobility [4]: 55.0 s

Compound: N#Cc1cnn2c1NCC=C2c1cccc(C(F)(F)F)c1 [4,5-Dihydro-7-[3-(trifluoromethyl)phenyl]pyrazolo[1,5-a]pyrimidine-3-carbonitrile]
- % Inhibition of 3H-benzodiazepine binding [2]: 15%

Compound: NC(=O)c1cnn2c1NCC=C2c1cccc(C(F)(F)F)c1 [4,5-Dihydro-7-[3-(trifluoromethyl)phenyl]pyrazolo[1,5-a]pyrimidine-3-carboxamide]
- MABP/mm Hg (no. of rats) [1]: 108 mm Hg

Compound: CCOC(=O)c1cnn2c1NCC=C2c1cccc(C(F)(F)F)c1 [4,5-Dihydro-7-[3-(trifluoromethyl)phenyl]pyrazolo[1,5-a]pyrimidine-3-carboxylic acid, ethyl ester]
- % Inhibition of 3H-benzodiazepine binding [2]: 90%

Compound: FC(F)(F)c1cccc(C2=CCNc3ccnn32)c1 [4,5-Dihydro-7-[3-(trifluoromethyl)phenyl]pyrazolo[1,5-a]pyrimidine]
- % Inhibition of 3H-benzodiazepine binding [2]: 48%

Compound: N#Cc1cnn2c1NCC=C2c1ccccc1 [4,5-Dihydro-7-phenylpyrazolo[1,5-a]pyrimidine-3-carbonitrile]
- % Inhibition of 3H-benzodiazepine binding [2]: 20%

Compound: NC(=O)c1cnn2c1NCC=C2c1ccccc1 [4,5-Dihydro-7-phenylpyrazolo[1,5-a]pyrimidine-3-carboxamide]
- % of Rats Protected (against clonic seizures) [5]: 50%

Compound: CCOC(=O)c1cnn2c1NCC=C2c1ccccc1 [4,5-Dihydro-7-phenylpyrazolo[1,5-a]pyrimidine-3-carboxylic acid, ethyl ester]
- % Inhibition of 3H-benzodiazepine binding [2]: 54%

Compound: Cc1nn2c(c1C(N)=O)NCC=C2c1cc(Cl)ccc1Cl [7-(2,5-Dichlorophenyl)-4,5-dihydro-2-methylpyrazolo[1,5-a]pyrimidine-3-carboxamide]
- MABP/mm Hg (no. of rats) [1]: 95 mm Hg

Compound: N#Cc1cnn2c1NCC=C2c1ccc(Cl)c(Cl)c1 [7-(3,4-Dichlorophenyl)-4,5-dihydropyrazolo[1,5-a]pyrimidine-3-carbonitrile]
- % Inhibition of 3H-benzodiazepine binding [2]: 12%

Compound: CC1CC(c2cccc(Cl)c2)n2ncc(C#N)c2N1 (stereo not drawn) [7-(3-Chlorophenyl)-4,5,6,7,-tetrahydro-5-methylpyrazolo[1,5-a]pyrimidine-3-carbonitrile]
- Mean Duration (Seconds) of immobility [4]: 75.4 s

Compound: CC1=C(c2cccc(Cl)c2)n2ncc(C#N)c2NC1 [7-(3-Chlorophenyl)-4,5-dihydro-6-methylpyrazolo[1,5-a]pyrimidine-3-carbonitrile]
- Mean Duration (Seconds) of immobility [4]: 66.7 s

Compound: NC(=O)c1cnn2c1NCC=C2c1cccc(F)c1 [7-(3-Fluorophenyl)-4,5-dihydropyrazolo[1,5-a]pyrimidine-3-carboxamide]
- % Inhibition of 3H-benzodiazepine binding [2]: 39%

Compound: CC1CC(c2ccc(Cl)cc2)n2ncc(C#N)c2N1 (stereo not drawn) [7-(4-Chlorophenyl)-4,5,6,7-tetrahydro-5-methylpyrazolo[1,5-a]pyrimidine-3-carbonitrile]
- Mean Duration (Seconds) of immobility [4]: 4.7 s

Compound: O=C(c1ccccc1)c1cnn2c1NCCC2c1ccncc1 (stereo not drawn) [Phenyl[4,5,6,7-tetrahydro-7-(4-pyridinyl)pyrazolo[1,5-a]pyrimidin-3-yl]methanone]
- MABP/mm Hg (no. of rats) [1]: 125 mm Hg
- % Inhibition of 3H-benzodiazepine binding [2]: 22%

Compound: O=C(c1ccccc1)c1cnn2c1NCC=C2c1cccc(C(F)(F)F)c1 [[4,5-Dihydro-7-[3-(trifluoromethyl)phenyl]pyrazolo[1,5-a]pyrimidin-3-yl]phenylmethanone]
- Result (no. of shocks per 3 min.) [3]: 19.1 no. of shocks per 3 min.
- MABP/mm Hg (no. of rats) [1]: 122 mm Hg
- % of Rats Protected (against clonic seizures) [5]: 75%
- % Inhibition of 3H-benzodiazepine binding [2]: 76%
